Laboratory results: paper PMC5068912 (Psychopharmacology, 2016)
Counter-ions that a name gives are not always drawn. Like-named read-outs stand apart in the source and are kept apart here.

Tests used:
mice [1] = settings: 10 mg/kg ip; ref Ramabadran 1982; cited from earlier work
C57BL/6 wild-type mice [2] = settings: mouse, in vivo
MOR knock-out mice = settings: ip, up to 32 mg/kg, n=6
C57BL/6 wild-type mice [3] = settings: for ED50, WWTW antinociception: mean ± SEM
C57BL/6 wild-type mice [4] = settings: mouse, in vivo; remark: listed apart in the source
DOR [5] = settings: mouse, in vivo
MOR [6] = settings: pH 7.4
MOR [7] = settings: cited from earlier work
DOR [8] = settings: in vitro; ref Mosberg et al. 2014; cited from earlier work
MOR [9] = settings: in vitro; ref Mosberg et al. 2014; cited from earlier work
DOR [10] = settings: in vitro; ref Mosberg et al. 2014; cited from earlier work; remark: listed apart in the source
mice [11] = settings: mouse, in vivo; cited from earlier work

## C[N+]1(CC2CC2)CC[C@]23c4c5ccc(O)c4O[C@H]2C(=O)CC[C@@]3(O)[C@H]1C5 (some centres unmarked) [MNTX, methylnaltrexone HBr]
Mice [1]
  block of opioid effects: block peripheral, but not central, effects of opioids

## Dmt-c(SEtS)[DCys-Aic-DPen]-Ser(β-glucose)-NH2 [VRP26]
C57BL/6 wild-type mice [2]
  dose producing maximal antinociceptive effect: 10 mg/kg
  lowest, maximally-effective, acute dose in the WWTW assay: 10 mg/kg
C57BL/6 wild-type mice [2]; ip
  ED50, WWTW antinociception: 5.44 ± 0.10 mg/kg
C57BL/6 wild-type mice [2]; sc
  ED50, WWTW antinociception: 5.08 ± 0.23 mg/kg
Wild type littermates; 10 mg/kg ip, t(10) = 9.161, p < 0.0001
  tail withdrawal latency, wild type vs MOR knock-out littermates: significantly increased withdrawal latency in wild type mice as compared with MOR knock-out littermates
Wild type littermates; ip, wild type littermates
  dose producing maximal antinociceptive effect: 10 mg/kg
Wild type littermates; ip, wild type littermates of MOR knock-out mice, mean ± SEM, n=6
  ED50, WWTW antinociception: 4.77 ± 0.32 mg/kg
MOR knock-out mice
  increase in tail withdrawal latency: failed to produce a significant increase in tail withdrawal latency up to 32 mg/kg
C57BL/6 wild-type mice [3]; 10 mg/kg MNTX ip, two way ANOVA, effect of dose F(4, 40) = 393.6, p < 0.0001
  effect of pretreatment (vehicle vs MNTX) on VRP26 antinociception: no effect of pretreatment (vehicle vs MNTX)
C57BL/6 wild-type mice [3]; VRP26 ip, pretreated with 10 mg/kg MNTX ip, n=6
  ED50, WWTW antinociception: 4.73 ± 0.13 mg/kg
C57BL/6 wild-type mice [3]; VRP26 ip, vehicle and 10 mg/kg MNTX pretreated mice, n=6
  dose-dependence of tail withdrawal latency increase: dose-dependent increases in tail withdrawal latency
C57BL/6 wild-type mice [3]; VRP26 ip, vehicle pretreated mice, n=6
  ED50, WWTW antinociception: 4.73 ± 0.22 mg/kg
C57BL/6 wild-type mice [3]; ip, both vehicle and MNTX pretreated mice
  dose producing maximal response: 10 mg/kg
C57BL/6 wild-type mice [4]
  ED50 of VRP26, day 1, saline treated group: 5.35 ± 0.17 mg/kg
  ED50 of VRP26, day 8, saline treated group: 5.07 ± 0.23 mg/kg
  shift in the dose response curve after chronic treatment: no shift in the dose response curve
DOR [5]
  SNC80-induced decrease in immobility after pretreatment: partially blocked SNC80-induced decreases in immobility
DOR [5]; sc, 10 mg/kg
  immobility, compound alone vs control: no effect on immobility as compared with control
MOR [6]
  relative efficacy at MOR: 0.28
MOR [7]; discussion statement, source not given there
  affinity balance between MOR and DOR: balanced affinity between MOR and DOR
MOR [7]; in vitro, ref Mosberg et al. 2014
  affinity for MOR: low nanomolar affinity
DOR [8]
  affinity for DOR: low nanomolar affinity
MOR [9]
  agonist activity at MOR: agonist activity at MOR similar to morphine
DOR [10]
  antagonism at DOR: antagonism at DOR
Mice [11]
  acute tolerance: does not produce acute tolerance
  antinociception, WWTW: dose-dependent antinociception

## Oc1ccc2c3c1O[C@H]1c4[nH]c5ccccc5c4C[C@@]4(O)[C@@H](C2)N(CC2CC2)CC[C@]314 [NTI, Naltrindole HCl, reference compound]
DOR [5]
  SNC80-induced decrease in immobility after pretreatment: blocked
  immobility in NTI pretreated mice vs vehicle treated mice: not statistically different from immobility in vehicle treated mice
